Assay results published in BindingDB's records for doi:10.1021/jm990281p (Parke-Davis Pharmaceutical Research, 2000).

Tests used:
[1] = biological target: T1, Dimer of Gag-Pol polyprotein [489-587] (Human immunodeficiency virus 1, UniProt P12497); experiment: Protease Inhibition Assay
T1 construct: 489-587
Protocol: (§1) Sensitivity of HIV-1 protease activity to protease inhibitors was determined by a peptide substrate cleavage assay. Protease products were analyzed on a reverse-phase high-pressure liquid chromatograph.

[2] = biological target: T2, Gag-Pol polyprotein [489-587] (Human immunodeficiency virus 1, UniProt P04585); experiment: Protease Inhibition Assay
T2 construct: 489-587
Protocol: as §1

Compound | IC50 ([1]; pH 6.2, 37 °C) [nM] | IC50 [2] [nM] | IC50 [1] [nM]
Cc1cc(SC2C(=O)CC(CCc3ccc(O)cc3)(C(C)C)OC2=O)c(C(C)(C)C)cc1NS(C)(=O)=O (stereo not given) | 4 | 4 | 
Cc1cc(SC2C(=O)CC(CCc3ccc(O)cc3)(C(C)C)OC2=O)c(C(C)(C)C)cc1NS(=O)(=O)c1ccc(Cl)cc1 (stereo not given) | 5.3 | 5.3 | 
Cc1cc(SC2C(=O)CC(CCc3ccc(O)cc3)(C(C)C)OC2=O)c(C(C)(C)C)cc1NS(=O)(=O)c1cccnc1 (stereo not given) | 2.6 | 2.6 | 
Cc1cc(SC2C(=O)CC(C)(CCc3ccc(O)cc3)OC2=O)c(C(C)(C)C)cc1NS(C)(=O)=O (stereo not given) | 9.7 | 9.7 | 
Cc1cc(SC2C(=O)CC(C)(CCc3ccc(O)cc3)OC2=O)c(C(C)(C)C)cc1NS(=O)(=O)c1ccc(C#N)cc1 (stereo not given) | 2.1 | 2.1 | 
Cc1cc(SC2C(=O)CC(CCc3ccccc3)(C(C)C)OC2=O)c(C(C)(C)C)cc1N (stereo not given) | 3.6 | 3.6 | 
Cc1cc(SC2C(=O)CC(CCc3ccccc3)(C(C)C)OC2=O)c(C(C)(C)C)cc1NS(=O)(=O)c1cccs1 (stereo not given) | 3.6 | 3.6 | 
Cc1cc(SC2C(=O)CC(CCc3ccc(O)cc3)(C(C)C)OC2=O)c(C(C)(C)C)cc1OS(=O)(=O)c1ccc(F)cc1 (stereo not given) |  | 9.6 | 9.6
Cc1cc(SC2C(=O)CC(CCc3ccc(O)cc3)(C(C)C)OC2=O)c(C(C)(C)C)cc1OS(=O)(=O)c1cccnc1 (stereo not given) |  | 3.5 | 3.5
Cc1cc(SC2C(=O)CC(C)(CCc3ccc(O)cc3)OC2=O)c(C(C)(C)C)cc1OS(=O)(=O)c1ccccc1 (stereo not given) |  | 9.8 | 9.8
Cc1cc(SC2C(=O)CC(C)(CCc3ccc(O)cc3)OC2=O)c(C(C)(C)C)cc1OS(=O)(=O)c1ccc(F)cc1 (stereo not given) |  | 16.9 | 16.9
Cc1cc(SC2C(=O)CC(CCc3ccc(O)cc3)(C3CCCCC3)OC2=O)c(C(C)(C)C)cc1OS(=O)(=O)c1ccc(C#N)cc1 (stereo not given) |  | 21 | 21
Cc1cc(SC2C(=O)CC(CCc3ccc(O)cc3)(C3CCCCC3)OC2=O)c(C(C)(C)C)cc1OS(=O)(=O)c1ccc(F)cc1 (stereo not given) |  | 29 | 29
Cc1cc(SC2C(=O)CC(CCc3ccccc3)(C(C)C)OC2=O)c(C(C)(C)C)cc1OS(=O)(=O)c1cccnc1 (stereo not given) |  | 14 | 14
Cc1cc(SC2C(=O)CC(CCc3ccc(N)cc3)(C(C)C)OC2=O)c(C(C)(C)C)cc1OS(=O)(=O)c1ccc(C#N)cc1 (stereo not given) |  | 1.3 | 1.3
CCNS(=O)(=O)Nc1cc(C(C)(C)C)c(SC2C(=O)CC(CCc3ccc(O)cc3)(C(C)C)OC2=O)cc1C (stereo not given) |  | 1.7 | 1.7
CCNS(=O)(=O)Nc1cc(C(C)(C)C)c(SC2C(=O)CC(CCc3ccccc3)(C(C)C)OC2=O)cc1C (stereo not given) |  | 3.3 | 3.3
Cc1cc(SC2C(=O)CC(CCc3ccc(O)cc3)(C(C)C)OC2=O)c(C(C)(C)C)cc1NS(=O)(=O)N(C)C (stereo not given) [3-({2-tert-butyl-4-[(dimethylsulfamoyl)amino]-5-methylphenyl}sulfanyl)-4-hydroxy-6-[2-(4-hydroxyphenyl)ethyl]-6-(propan-2-yl)-5,6-dihydro-2H-pyran-2-one] |  | 3.6 | 3.6

Compound | IC50 ([1]; pH 6.2, 37 °C) [nM] | IC50 [2] [nM] | IC50 [1] [nM]
Cc1cc(SC2C(=O)CC(C)(CCc3ccc(O)cc3)OC2=O)c(C(C)(C)C)cc1N (stereo not given) [3-[(4-amino-2-tert-butyl-5-methylphenyl)sulfanyl]-4-hydroxy-6-[2-(4-hydroxyphenyl)ethyl]-6-methyl-5,6-dihydro-2H-pyran-2-one] | 13 | 13 | 
Cc1cc(SC2C(=O)CC(CCc3ccc(O)cc3)(C(C)C)OC2=O)c(C(C)(C)C)cc1OS(=O)(=O)c1ccc(C#N)cc1 (stereo not given) [5-tert-butyl-4-({4-hydroxy-6-[2-(4-hydroxyphenyl)ethyl]-2-oxo-6-(propan-2-yl)-5,6-dihydro-2H-pyran-3-yl}sulfanyl)-2-methylphenyl 4-cyanobenzene-1-sulfonate] |  | 4.5 | 4.5
Cc1cc(SC2C(=O)CC(CCc3ccc(O)cc3)(C(C)C)OC2=O)c(C(C)(C)C)cc1OS(=O)(=O)c1ccccc1 (stereo not given) [5-tert-butyl-4-({4-hydroxy-6-[2-(4-hydroxyphenyl)ethyl]-2-oxo-6-(propan-2-yl)-5,6-dihydro-2H-pyran-3-yl}sulfanyl)-2-methylphenyl benzenesulfonate] |  | 10.4 | 10.4
Cc1cc(SC2C(=O)CC(CCc3ccc(O)cc3)(C(C)C)OC2=O)c(C(C)(C)C)cc1OS(=O)(=O)c1ccccn1 (stereo not given) [5-tert-butyl-4-({4-hydroxy-6-[2-(4-hydroxyphenyl)ethyl]-2-oxo-6-(propan-2-yl)-5,6-dihydro-2H-pyran-3-yl}sulfanyl)-2-methylphenyl pyridine-2-sulfonate] |  | 5 | 5
Cc1cc(SC2C(=O)CC(CCc3ccc(O)cc3)(C(C)C)OC2=O)c(C(C)(C)C)cc1OS(=O)(=O)c1cccs1 (stereo not given) [5-tert-butyl-4-({4-hydroxy-6-[2-(4-hydroxyphenyl)ethyl]-2-oxo-6-(propan-2-yl)-5,6-dihydro-2H-pyran-3-yl}sulfanyl)-2-methylphenyl thiophene-2-sulfonate] |  | 21.8 | 21.8
Cc1cc(SC2C(=O)CC(CCc3ccc(O)cc3)(C3CCCCC3)OC2=O)c(C(C)(C)C)cc1OS(=O)(=O)c1ccccc1 (stereo not given) [5-tert-butyl-4-({6-cyclohexyl-4-hydroxy-6-[2-(4-hydroxyphenyl)ethyl]-2-oxo-5,6-dihydro-2H-pyran-3-yl}sulfanyl)-2-methylphenyl benzenesulfonate] |  | 131 | 130
Cc1cc(SC2C(=O)CC(CCc3ccccc3)(C(C)C)OC2=O)c(C(C)(C)C)cc1OS(=O)(=O)c1ccccn1 (stereo not given) [5-tert-butyl-4-{[4-hydroxy-2-oxo-6-(2-phenylethyl)-6-(propan-2-yl)-5,6-dihydro-2H-pyran-3-yl]sulfanyl}-2-methylphenyl pyridine-2-sulfonate] |  | 6.7 | 6.7
Cc1cc(SC2C(=O)CC(CCc3ccccc3)(C(C)C)OC2=O)c(C(C)(C)C)cc1NS(=O)(=O)c1ccccn1 (stereo not given) [N-(5-tert-butyl-4-{[4-hydroxy-2-oxo-6-(2-phenylethyl)-6-(propan-2-yl)-5,6-dihydro-2H-pyran-3-yl]sulfanyl}-2-methylphenyl)pyridine-2-sulfonamide] |  | 3 | 3
Cc1cc(SC2C(=O)CC(CCc3ccc(O)cc3)(C(C)C)OC2=O)c(C(C)(C)C)cc1NS(=O)(=O)c1ccc(C(F)(F)F)cc1 (stereo not given) [N-[5-tert-butyl-4-({4-hydroxy-6-[2-(4-hydroxyphenyl)ethyl]-2-oxo-6-(propan-2-yl)-5,6-dihydro-2H-pyran-3-yl}sulfanyl)-2-methylphenyl]-4-(trifluoromethyl)benzene-1-sulfonamide] | 18.3 | 18.3 | 
Cc1cc(SC2C(=O)CC(CCc3ccc(O)cc3)(C(C)C)OC2=O)c(C(C)(C)C)cc1NS(=O)(=O)c1ccc(F)cc1 (stereo not given) [N-[5-tert-butyl-4-({4-hydroxy-6-[2-(4-hydroxyphenyl)ethyl]-2-oxo-6-(propan-2-yl)-5,6-dihydro-2H-pyran-3-yl}sulfanyl)-2-methylphenyl]-4-fluorobenzene-1-sulfonamide] | 4.1 | 4.1 | 
Cc1cc(SC2C(=O)CC(CCc3ccc(O)cc3)(C(C)C)OC2=O)c(C(C)(C)C)cc1NS(=O)(=O)c1ccccn1 (stereo not given) [N-[5-tert-butyl-4-({4-hydroxy-6-[2-(4-hydroxyphenyl)ethyl]-2-oxo-6-(propan-2-yl)-5,6-dihydro-2H-pyran-3-yl}sulfanyl)-2-methylphenyl]pyridine-2-sulfonamide] | 2.6 | 2.6 | 
Cc1cc(SC2C(=O)CC(CCc3ccc(O)cc3)(C(C)C)OC2=O)c(C(C)(C)C)cc1NS(=O)(=O)c1cccs1 (stereo not given) [N-[5-tert-butyl-4-({4-hydroxy-6-[2-(4-hydroxyphenyl)ethyl]-2-oxo-6-(propan-2-yl)-5,6-dihydro-2H-pyran-3-yl}sulfanyl)-2-methylphenyl]thiophene-2-sulfonamide] | 8.7 | 8.7 | 
Cc1cc(SC2C(=O)CC(C)(CCc3ccc(O)cc3)OC2=O)c(C(C)(C)C)cc1NS(=O)(=O)c1ccc(C(F)(F)F)cc1 (stereo not given) [N-[5-tert-butyl-4-({4-hydroxy-6-[2-(4-hydroxyphenyl)ethyl]-6-methyl-2-oxo-5,6-dihydro-2H-pyran-3-yl}sulfanyl)-2-methylphenyl]-4-(trifluoromethyl)benzene-1-sulfonamide] | 12.3 | 12.3 | 
Cc1cc(SC2C(=O)CC(C)(CCc3ccc(O)cc3)OC2=O)c(C(C)(C)C)cc1NS(=O)(=O)c1ccc(Cl)cc1 (stereo not given) [N-[5-tert-butyl-4-({4-hydroxy-6-[2-(4-hydroxyphenyl)ethyl]-6-methyl-2-oxo-5,6-dihydro-2H-pyran-3-yl}sulfanyl)-2-methylphenyl]-4-chlorobenzene-1-sulfonamide] | 3.5 | 3.5 | 
Cc1cc(SC2C(=O)CC(C)(CCc3ccc(O)cc3)OC2=O)c(C(C)(C)C)cc1NS(=O)(=O)c1ccc(F)cc1 (stereo not given) [N-[5-tert-butyl-4-({4-hydroxy-6-[2-(4-hydroxyphenyl)ethyl]-6-methyl-2-oxo-5,6-dihydro-2H-pyran-3-yl}sulfanyl)-2-methylphenyl]-4-fluorobenzene-1-sulfonamide] | 3.7 | 3.7 | 
Cc1cc(SC2C(=O)CC(C)(CCc3ccc(O)cc3)OC2=O)c(C(C)(C)C)cc1NS(=O)(=O)c1ccccc1 (stereo not given) [N-[5-tert-butyl-4-({4-hydroxy-6-[2-(4-hydroxyphenyl)ethyl]-6-methyl-2-oxo-5,6-dihydro-2H-pyran-3-yl}sulfanyl)-2-methylphenyl]benzenesulfonamide] | 1.5 | 1.5 | 
Cc1cc(SC2C(=O)CC(CCc3ccc(O)cc3)(C3CCCC3)OC2=O)c(C(C)(C)C)cc1NS(=O)(=O)c1ccccc1 (stereo not given) [N-[5-tert-butyl-4-({6-cyclopentyl-4-hydroxy-6-[2-(4-hydroxyphenyl)ethyl]-2-oxo-5,6-dihydro-2H-pyran-3-yl}sulfanyl)-2-methylphenyl]benzenesulfonamide] | 8.6 | 8.6 | 
